This note sets out measurements from US20250222146A1, “Radiopharmaceuticals Targeting Somatostatin Receptor 2 and Uses Thereof” (RayzeBio, Inc., priority 2023, published 2025).

For orientation: Ki means the equilibrium dissociation constant of an inhibitor or competing ligand from its target.

Structures are written as SMILES. Square brackets hold non-standard residues; d marks the D form. Side chains are listed from the residue outwards. Peptide text beside a SMILES is read from it. * marks the point of attachment. ξ: configuration not given here. DOTA(Lu)NH(CH2)6NHCOCH2 = O=C(CN1CCN2CCN3CCN(CC1)CC(=O)[O][Lu]([O]C(=O)C2)[O]C(=O)C3)NCCCCCCNC(=O)C*; DOTA(Lu) = O=C1CN2CCN3CCN(CC(=O)*)CCN(CC2)CC(=O)[O][Lu]([O]1)[O]C(=O)C3; ξDihydroorotoyl = O=C1CC(C(=O)*)NC(=O)N1; Phe(4-NH2) = Nc1ccc(C[C@H](N)C(=O)O)cc1; 3Pal = N[C@@H](Cc1cccnc1)C(=O)O; 4Pal = N[C@@H](Cc1ccncc1)C(=O)O; NMeOrn = CN[C@@H](CCCN)C(=O)O; NMehCys = CN[C@@H](CCS)C(=O)O; NMeK = CN[C@@H](CCCCN)C(=O)O; NMeC = CN[C@@H](CS)C(=O)O; NMeA = CN[C@@H](C)C(=O)O; Ahx = NCCCCCC(=O)O

SSTR2, sequence (P30874 whole entry): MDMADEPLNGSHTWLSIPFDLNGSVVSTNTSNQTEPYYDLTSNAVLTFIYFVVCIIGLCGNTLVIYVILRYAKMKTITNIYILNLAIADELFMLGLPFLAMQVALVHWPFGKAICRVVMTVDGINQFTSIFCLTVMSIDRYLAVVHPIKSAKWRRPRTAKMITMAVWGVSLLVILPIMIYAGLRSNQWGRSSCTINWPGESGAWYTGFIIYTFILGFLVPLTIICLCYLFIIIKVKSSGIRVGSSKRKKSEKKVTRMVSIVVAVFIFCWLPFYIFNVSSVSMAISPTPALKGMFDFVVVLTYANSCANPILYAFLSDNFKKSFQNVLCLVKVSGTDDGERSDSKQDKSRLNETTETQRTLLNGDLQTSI

One assay deals with SSTR2 (Homo sapiens, UniProt P30874). The assay is described as follows: SSTR binding affinity by radioligand binding competition assay ([125I]-Tyr11-Somatostatin, membrane extracts). The conditions noted are these: SSTR2 Ki, radioligand competition, [125I]-Tyr11-Somatostatin 0.1 nM, membrane extracts; Ki from IC50 by Cheng Prusoff. The method, then:
Macrocyclic peptides in this invention were tested for binding to SSTR protein by a radioligand binding competition assay. For radioligand binding assay, competition binding is performed in duplicate in the wells of a 96 well plate containing binding buffer (HEPES 25 mM pH 7.4, MgCl2 5 mM, CaCl2 1 mM, BSA 0.5%, Saponine 10 μg/ml)), membrane extracts (0.6 μg protein/well), radiotracer ([125I]-Tyr11-Somatostatin, Perkin Elmer NEX389) and test compound. Nonspecific binding is determined by co-incubation with 200-fold excess of cold competitor (SST28). The samples are incubated in a final volume of 0.1 ml for 60 min at room temperature and then filtered over UniFilter-96 GF/C (Revvity 6055690) filter plates. Filters are washed six times with 0.5 ml of ice-cold washing buffer (HEPES 25 mM pH 7.4, MgCl2 5 mM, CaCl2 1 mM) and 50 μl of Microscint 20 (Packard) are added in each well. The plates are incubated 15 min on an orbital shaker and then counted with a TopCount™ for 1 min/well. For IC50 to Ki determination, the Cheng Prusoff equation is used: Ki=IC50/(1+ [tracer]/Kd). [Tracer] is 0.1 nM as mentioned above.
In general terms: In a radioligand displacement assay an active substance lowers the binding of a labelled ligand.
Take `CC(C)[C@@H]1NC(=O)[C@H](CCCCN)NC(=O)[C@@H](Cc2c[nH]c3ccccc23)NC(=O)[C@H](Cc2ccc(O)cc2)NC(=O)[C@H](CCCCNC(=O)CCCCCNC(=O)CN2CCN3CCN4CCN(CC2)CC(=O)[O][Lu]([O]C(=O)C3)[O]C(=O)C4)N(C)C(=O)[C@H](Cc2ccccc2)NC1=O` [RB-0002670] (cyclo(F[NMeK]([Ahx-DOTA(Lu)])Y[dW]KV)): the Ki was below 1 nM. `CC(C)[C@@H]1NC(=O)[C@H](CCCCN)NC(=O)[C@@H](Cc2c[nH]c3ccccc23)NC(=O)[C@H](Cc2ccc(O)cc2)NC(=O)[C@H](CSCC(=O)NCCCCCCNC(=O)CN2CCN3CCN4CCN(CC2)CC(=O)[O][Lu]([O]C(=O)C3)[O]C(=O)C4)N(C)C(=O)[C@H](Cc2ccccc2)NC1=O` [RB-0002674] (cyclo(F[NMeC](DOTA(Lu)NH(CH2)6NHCOCH2)Y[dW]KV)) registered a Ki of 1 to 3.33 nM.

Staying with this assay, now noted: radioligand competition, [125I]-Tyr11-Somatostatin 0.1 nM, membrane extracts; Ki from IC50 by Cheng Prusoff; read-out: SSTR2 Ki.
With `C[C@@H](O)[C@@H]1NC(=O)[C@H](CC2CCNCC2)NC(=O)[C@@H]([C@@H](C)c2c[nH]c3ccccc23)NC(=O)[C@H](Cc2ccc(O)cc2)NC(=O)[C@H](CCCCNC(=O)CCC2C(=O)[O][Ga]3[O]C(=O)CN4CCN(CCN2CC4)CC(=O)[O]3)N(C)C(=O)[C@H](Cc2ccccc2)NC1=O` (mixture of isomers) [RB-0006285], the Ki lay within 1 to 3.33 nM. On the same count and under the same terms, to `C[C@@H](O)[C@@H]1NC(=O)[C@H](CN2CCNCC2)NC(=O)[C@@H]([C@@H](C)c2c[nH]c3ccccc23)NC(=O)[C@H](Cc2ccc(O)cc2)NC(=O)[C@H](CCCCNC(=O)CCC2C(=O)[O][Ga]3[O]C(=O)CN4CCN(CCN2CC4)CC(=O)[O]3)N(C)C(=O)[C@H](Cc2ccccc2)NC1=O` (mixture of isomers) [RB-0006417] belongs 1 to 3.33 nM.

Take `CC(C)[C@@H]1NC(=O)[C@H](CCCCN)NC(=O)[C@@H](Cc2c[nH]c3ccccc23)NC(=O)[C@H](Cc2ccc(O)cc2)NC(=O)[C@H](CCCNC(=O)CCCCCNC(=O)CN2CCN3CCN4CCN(CC2)CC(=O)[O][Lu]([O]C(=O)C3)[O]C(=O)C4)N(C)C(=O)[C@H](Cc2ccccc2)NC1=O` [RB-0002672] (cyclo(F[NMeOrn]([Ahx-DOTA(Lu)])Y[dW]KV)): the Ki lay in the range of 1 to 3.33 nM.

For the compound `CCN(C)CC(=O)[O][Lu]1[O]C(=O)CN(C)CCN(CCN(CC)CC(=O)NCCCCCCNC(=O)CCC[C@H]2C(=O)N[C@@H](CC3=CC=C(O)C=C3)C(=O)N[C@H](CC3=CNC4=C3C=CC=C4)C(=O)N[C@@H](CCCCN)C(=O)N[C@@H](C(C)C)C(=O)N[C@@H](CC3=CC=CC=C3)C(=O)N2C)CC(=O)[O]1` [RB-0002680] (HELM PEPTIDE1{F.[CN([C@@H](CCCC(=O)[*:3])C(=O)[*:2])[*:1]].Y.[dW].K.V}|CHEM1{[CCN(C)CC(=O)[O][Lu]1[O]C(=O)CN(C)CCN(CCN(CC)CC(=O)NCCCCCCN[*:1])CC(=O)[O]1]}$PEPTIDE1,CHEM1,2:R3-1:R1|PEPTIDE1,PEPTIDE1,1:R1-6:R2$$$V2.0), the Ki lay in the range of 1 to 3.33 nM.

For the compound `C[C@@H](O)[C@@H]1NC(=O)[C@H](CCCCN)NC(=O)[C@@H](Cc2c[nH]c3ccccc23)NC(=O)[C@H](Cc2cccnc2)NC(=O)[C@H](CSCC(=O)NCCCCCCNC(=O)CN2CCN3CCN4CCN(CC2)CC(=O)[O][Lu]([O]C(=O)C3)[O]C(=O)C4)N(C)C(=O)[C@H](Cc2ccccc2)NC1=O` [RB-0002946] (cyclo([3Pal][dW]KTF[NMeC](DOTA(Lu)NH(CH2)6NHCOCH2))), the Ki lay within 10 to 33.3 nM. For `C[C@@H](O)[C@@H]1NC(=O)[C@H](CCCCN)NC(=O)[C@@H](Cc2c[nH]c3ccccc23)NC(=O)[C@H](Cc2ccncc2)NC(=O)[C@H](CSCC(=O)NCCCCCCNC(=O)CN2CCN3CCN4CCN(CC2)CC(=O)[O][Lu]([O]C(=O)C3)[O]C(=O)C4)N(C)C(=O)[C@H](Cc2ccccc2)NC1=O` [RB-0002947] (cyclo([4Pal][dW]KTF[NMeC](DOTA(Lu)NH(CH2)6NHCOCH2))), the Ki lay in the range of 3.33 to 10 nM. Same read-out and setting: to `C[C@@H](O)[C@@H]1NC(=O)[C@H](CCCCN)NC(=O)[C@@H](Cc2c[nH]c3ccccc23)NC(=O)[C@H](Cc2cccnc2)NC(=O)[C@H](CCSCC(=O)NCCCCCCNC(=O)CN2CCN3CCN4CCN(CC2)CC(=O)[O][Lu]([O]C(=O)C3)[O]C(=O)C4)N(C)C(=O)[C@H](Cc2ccccc2)NC1=O` [RB-0003000] (cyclo([3Pal][dW]KTF[NMehCys](DOTA(Lu)NH(CH2)6NHCOCH2))) belongs below 1 nM. For `C[C@@H](O)[C@@H]1NC(=O)[C@H](CCCCN)NC(=O)[C@@H](Cc2c[nH]c3ccccc23)NC(=O)[C@H](Cc2ccncc2)NC(=O)[C@H](CCSCC(=O)NCCCCCCNC(=O)CN2CCN3CCN4CCN(CC2)CC(=O)[O][Lu]([O]C(=O)C3)[O]C(=O)C4)N(C)C(=O)[C@H](Cc2ccccc2)NC1=O` [RB-0003002] (cyclo([4Pal][dW]KTF[NMehCys](DOTA(Lu)NH(CH2)6NHCOCH2))), the Ki is below 1 nM.

With `CCN(C)CC(=O)[O][Lu]1[O]C(=O)CN(C)CCN(CCN(CC)CC(=O)NCCCCCC(=O)NCCCCC[C@H]2C(=O)N[C@@H](Cc3ccc(O)cc3)C(=O)N[C@H](Cc3c[nH]c4ccccc34)C(=O)N[C@@H](CCCCN)C(=O)N[C@@H]([C@@H](C)O)C(=O)N[C@@H](Cc3ccccc3)C(=O)N2C)CC(=O)[O]1` [RB-0003057], the Ki is below 1 nM.

The same assay, now with this note: read-out: SSTR2 Ki.
Turning to `CC(C)[C@@H]1NC(=O)[C@H](CCCCN)NC(=O)[C@@H](Cc2ccc(NC(N)=O)cc2)NC(=O)[C@H](Cc2ccc(O)cc2)NC(=O)[C@H](C)N(C)C(=O)[C@H](Cc2ccccc2)NC1=O` [RB-0002328] (HELM PEPTIDE1{F.[meA].Y.[NC(=O)Nc1ccc(C[C@@H](N[*:1])C(=O)[*:2])cc1].K.V}$PEPTIDE1,PEPTIDE1,1:R1-6:R2$$$V2.0), the Ki fell in the range of 1 to 3.33 nM. Same read-out and setting: next, `CC(=O)NCCCC[C@H]1C(=O)N[C@@H](Cc2ccc(O)cc2)C(=O)N[C@H](Cc2c[nH]c3ccccc23)C(=O)N[C@@H](CCCCN)C(=O)N[C@@H](C(C)C)C(=O)N[C@@H](Cc2ccccc2)C(=O)N1C` [RB-0002329] (HELM PEPTIDE1{F.[CN([C@@H](CCCCN[*:3])C(=O)[*:2])[*:1]].Y.[dW].K.V}|PEPTIDE2{[ac]}$PEPTIDE1,PEPTIDE2,2:R3-1:R2|PEPTIDE1,PEPTIDE1,1:R1-6:R2$$$V2.0): 1 to 3.33 nM; `CC(=O)NCCCC[C@@H]1C(=O)N[C@@H](Cc2ccc(O)cc2)C(=O)N[C@H](Cc2c[nH]c3ccccc23)C(=O)N[C@@H](CCCCN)C(=O)N[C@@H](C(C)C)C(=O)N[C@@H](Cc2ccccc2)C(=O)N1C` [RB-0002593] (HELM PEPTIDE1{F.[CN([C@H](CCCCN[*:3])C(=O)[*:2])[*:1]].Y.[dW].K.V}|PEPTIDE2{[ac]}$PEPTIDE1,PEPTIDE2,2:R3-1:R2|PEPTIDE1,PEPTIDE1,1:R1-6:R2$$$V2.0): 3.33 to 10 nM. Still for that read-out and setting: next, `C[C@@H](O)[C@@H]1NC(=O)[C@H](CCCCN)NC(=O)[C@@H](Cc2c[nH]c3ccccc23)NC(=O)[C@H](Cc2ccc(O)cc2)NC(=O)[C@H](C)N(C)C(=O)[C@H](Cc2ccccc2)NC1=O` [RB-0002594]: below 1 nM; `CC(C)[C@@H]1NC(=O)[C@H](CCCCN)NC(=O)[C@@H](Cc2c[nH]c3ccccc23)NC(=O)[C@H](Cc2ccc(O)c(O)c2)NC(=O)[C@H](C)N(C)C(=O)[C@H](Cc2ccccc2)NC1=O` [RB-0002595]: below 1 nM.

On to `CC(C)[C@@H]1NC(=O)[C@H](CCCCN)NC(=O)[C@@H](Cc2c[nH]c3ccccc23)NC(=O)[C@H](C(c2ccccc2)c2ccccc2)NC(=O)[C@H](C)N(C)C(=O)[C@H](Cc2ccccc2)NC1=O` [RB-0002596] (HELM PEPTIDE1{[O=C([C@@H](N[*:1])C(c1ccccc1)c1ccccc1)[*:2]].[dW].K.V.F.[meA]}$PEPTIDE1,PEPTIDE1,1:R1-6:R2$$$V2.0), for which the Ki was below 1 nM. As for `CC(C)[C@@H]1NC(=O)[C@H](CCCCN)NC(=O)[C@@H](Cc2c[nH]c3ccccc23)NC(=O)[C@H](Cc2ccc(NC(=O)C3CC(=O)NC(=O)N3)cc2)NC(=O)[C@H](C)N(C)C(=O)[C@H](Cc2ccccc2)NC1=O` (some centres unmarked) [RB-0002597] (cyclo(F[NMeA][Phe(4-NH2)](ξDihydroorotoyl)[dW]KV)), the inhibition constant (Ki) lay within 1 to 3.33 nM.

The same assay, now with this note: read-out: SSTR2 Ki; radioligand competition, [125I]-Tyr11-Somatostatin 0.1 nM, membrane extracts; Ki from IC50 by Cheng Prusoff.
Consider `CC(C)[C@@H]1NC(=O)[C@H](CCCCN)NC(=O)[C@@H](Cc2c[nH]c3ccccc23)NC(=O)[C@H](Cc2ccc(O)cc2)NC(=O)[C@H](CCC(=O)NCCCCCCNC(=O)CN2CCN(CC(=O)O)CCN(CC(=O)O)CCN(CC(=O)O)CC2)N(C)C(=O)[C@H](Cc2ccccc2)NC1=O` [RB-0002678] (HELM PEPTIDE1{F.[CN([C@@H](CCC(=O)[*:3])C(=O)[*:2])[*:1]].Y.[dW].K.V}|CHEM1{[O=C(O)CN1CCN(CC(=O)O)CCN(CC(=O)NCCCCCCN[*:1])CCN(CC(=O)O)CC1]}$PEPTIDE1,CHEM1,2:R3-1:R1|PEPTIDE1,PEPTIDE1,1:R1-6:R2$$$V2.0), for which the Ki is 3.33 to 10 nM. Take `C[C@@H](O)[C@@H]1NC(=O)[C@H](CCCCN)NC(=O)[C@@H](Cc2c[nH]c3ccccc23)NC(=O)[C@H](Cc2ccc(O)cc2)NC(=O)[C@H](CCCCC(=O)NCCCCCCNC(=O)CN2CCN(CC(=O)O)CCN(CC(=O)O)CCN(CC(=O)O)CC2)N(C)C(=O)[C@H](Cc2ccccc2)NC1=O` [RB-0003055]: the Ki was below 1 nM.
